Data from PubChem BioAssay (NCI).
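48-hour exposure; five concentrations; linearly interpolated endpoints. At the TGI there is no net growth.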

Tests used:
Assay in all cases: NCI-60 cell line screen, 48 h
CAKI-1 renal = test system: CAKI-1 renal
ACHN renal = test system: ACHN renal
MALME-3M melanoma = test system: MALME-3M melanoma
HL-60(TB) leukemia = test system: HL-60(TB) leukemia
SNB-19 CNS = test system: SNB-19 CNS
A498 renal = test system: A498 renal
NCI-H460 lung = test system: NCI-H460 lung
EKVX NSCLC = test system: EKVX NSCLC
MDA-MB-231 breast = test system: MDA-MB-231 breast
NCI-H226 lung = test system: NCI-H226 lung
DU-145 prostate = test system: DU-145 prostate
SK-MEL-2 melanoma = test system: SK-MEL-2 melanoma
CCRF-CEM leukemia = test system: CCRF-CEM leukemia
HS 578T breast = test system: HS 578T breast
SW-620 colon = test system: SW-620 colon
M14 melanoma = test system: M14 melanoma
OVCAR-4 ovarian = test system: OVCAR-4 ovarian
OVCAR-3 ovarian = test system: OVCAR-3 ovarian
SR leukemia = test system: SR leukemia
SK-MEL-5 melanoma = test system: SK-MEL-5 melanoma
LOX IMVI melanoma = test system: LOX IMVI melanoma
HT29 colon = test system: HT29 colon
NCI-H522 lung = test system: NCI-H522 lung
SF-268 CNS = test system: SF-268 CNS
UACC-257 melanoma = test system: UACC-257 melanoma
SNB-75 CNS = test system: SNB-75 CNS
RPMI-8226 leukemia = test system: RPMI-8226 leukemia
OVCAR-5 ovarian = test system: OVCAR-5 ovarian
SF-539 CNS = test system: SF-539 CNS
OVCAR-8 ovarian = test system: OVCAR-8 ovarian
NCI-H23 lung = test system: NCI-H23 lung
IGROV1 ovarian = test system: IGROV1 ovarian
SF-295 CNS = test system: SF-295 CNS
SN12C renal = test system: SN12C renal
T-47D breast = test system: T-47D breast
HCT-15 colon = test system: HCT-15 colon
MCF7 breast = test system: MCF7 breast
UO-31 renal = test system: UO-31 renal
HOP-92 NSCLC = test system: HOP-92 NSCLC
MDA-N = test system: MDA-N
SK-MEL-28 melanoma = test system: SK-MEL-28 melanoma
TK-10 renal = test system: TK-10 renal
U251 CNS = test system: U251 CNS
HCC-2998 colon = test system: HCC-2998 colon
KM12 colon = test system: KM12 colon
COLO 205 colon = test system: COLO 205 colon
HCT-116 colon = test system: HCT-116 colon
HOP-62 NSCLC = test system: HOP-62 NSCLC
UACC-62 melanoma = test system: UACC-62 melanoma
MOLT-4 leukemia = test system: MOLT-4 leukemia
A549 NSCLC = test system: A549 NSCLC
SK-OV-3 ovarian = test system: SK-OV-3 ovarian
RXF 393 renal = test system: RXF 393 renal
MDA-MB-435 = test system: MDA-MB-435
K-562 leukemia = test system: K-562 leukemia
786-0 renal = test system: 786-0 renal
BT-549 breast = test system: BT-549 breast
PC-3 prostate = test system: PC-3 prostate
NCI/ADR-RES ovarian = test system: NCI/ADR-RES ovarian

## O=C1CN2CCN(CC2)CC(=O)Nc2ccc(cc2)S(=O)(=O)c2ccc(cc2)NC(=O)CN2CCN(CC2)CC(=O)Nc2ccc(cc2)S(=O)(=O)c2ccc(cc2)N1
CAKI-1 renal
  TGI: > 100 µM
ACHN renal
  TGI: > 100 µM
MALME-3M melanoma
  TGI: 38.8 µM
HL-60(TB) leukemia
  TGI: > 100 µM
SNB-19 CNS
  TGI: > 100 µM
A498 renal
  TGI: > 100 µM
NCI-H460 lung
  TGI: 38.4 µM
EKVX NSCLC
  TGI: > 100 µM
MDA-MB-231 breast
  TGI: 43.1 µM
NCI-H226 lung
  TGI: > 100 µM
DU-145 prostate
  TGI: > 100 µM
SK-MEL-2 melanoma
  TGI: > 92.3 µM
CCRF-CEM leukemia
  TGI: 1810 nM
HS 578T breast
  TGI: > 100 µM
SW-620 colon
  TGI: 50.7 µM
M14 melanoma
  TGI: > 78.6 µM
OVCAR-4 ovarian
  TGI: > 100 µM
OVCAR-3 ovarian
  TGI: > 100 µM
SR leukemia
  TGI: > 100 µM
SK-MEL-5 melanoma
  TGI: > 100 µM
LOX IMVI melanoma
  TGI: > 100 µM
HT29 colon
  TGI: 51 µM
NCI-H522 lung
  TGI: 22.1 µM
SF-268 CNS
  TGI: 38.7 µM
UACC-257 melanoma
  TGI: > 100 µM
SNB-75 CNS
  TGI: > 100 µM
RPMI-8226 leukemia
  TGI: > 80.8 µM
OVCAR-5 ovarian
  TGI: 67.7 µM
SF-539 CNS
  TGI: 49.2 µM
OVCAR-8 ovarian
  TGI: > 100 µM
NCI-H23 lung
  TGI: > 90.4 µM
IGROV1 ovarian
  TGI: > 100 µM
SF-295 CNS
  TGI: > 100 µM
SN12C renal
  TGI: > 100 µM
T-47D breast
  TGI: > 100 µM
HCT-15 colon
  TGI: 30.7 µM
MCF7 breast
  TGI: > 100 µM
UO-31 renal
  TGI: > 100 µM
HOP-92 NSCLC
  TGI: > 100 µM
MDA-N
  TGI: > 100 µM
SK-MEL-28 melanoma
  TGI: > 100 µM
TK-10 renal
  TGI: > 100 µM
U251 CNS
  TGI: > 94.3 µM
HCC-2998 colon
  TGI: > 100 µM
KM12 colon
  TGI: > 100 µM
COLO 205 colon
  TGI: > 100 µM
HCT-116 colon
  TGI: 71.9 µM
HOP-62 NSCLC
  TGI: > 93.6 µM
UACC-62 melanoma
  TGI: > 67.9 µM
MOLT-4 leukemia
  TGI: > 89 µM
A549 NSCLC
  TGI: > 100 µM
SK-OV-3 ovarian
  TGI: > 100 µM
RXF 393 renal
  TGI: > 100 µM
MDA-MB-435
  TGI: > 89.7 µM
K-562 leukemia
  TGI: > 100 µM
786-0 renal
  TGI: > 100 µM
BT-549 breast
  TGI: > 87.9 µM
PC-3 prostate
  TGI: > 100 µM
NCI/ADR-RES ovarian
  TGI: > 87.3 µM
